{"source": "patent US7405314B2", "about": "(priority 2004, dated 2008)", "key": {"[1]": {"test_system": "panel of 60 tumor cell lines", "type": "cell-based, human"}, "mice": {"test_system": "mice", "conditions": "mouse, in vivo"}, "[2]": {"test_system": "HL60 human leukemia cells", "type": "cell-based"}, "[3]": {"test_system": "U937/PR9 cells (PML/RAR alpha)", "type": "cell-based, human"}, "HL60 cells": {"test_system": "HL60 cells", "type": "cell-based, human"}, "Swiss Webster mice": {"test_system": "Swiss Webster mice", "conditions": "mouse, in vivo"}}, "data": [{"smiles": "C[As](C)SC[C@H](NC(=O)CC[C@H](N)C(=O)O)C(=O)NCC(=O)O", "note": "[SGLU1, S-(Dimethylarsino) Glutathione]", "values": [{"measurement": "anticancer activity against tumor cell line panel", "setting": "[1]", "result": "evidence of activity at low concentrations"}, {"measurement": "doses at which deaths occurred", "setting": "mice; both, iv", "result": "250, 300, and 350 mg/kg/day"}, {"measurement": "no-observable-effect level for female mice", "setting": "mice; female, iv", "result": 150, "unit": "mg/kg"}, {"measurement": "no-observable-effect level (NOEL) for male mice", "setting": "mice; male, iv", "result": 100, "unit": "mg/kg/day"}, {"measurement": "testicular seminiferous tubular degeneration, incidence", "setting": "mice; 150 mg/kg/day", "result": "⅕"}, {"measurement": "centrilobular hypertrophy of hepatocytes, incidence", "setting": "mice; 200 mg/kg/day", "result": "⅕"}, {"measurement": "organs with compound-related lesions", "setting": "mice; iv", "result": "lung, liver, thymus, and testes"}, {"measurement": "sex difference in susceptibility (deaths)", "setting": "mice; iv", "result": "female mice being more susceptible than males"}, {"measurement": "induction of apoptosis (annexin V staining), events involved", "setting": "[2]", "result": "involves change of the potential of mitochondrial membrane (CMXRos staining) and activation of caspases"}, {"measurement": "influence of functional PML/Rar alpha gene on sensitivity of the cells", "setting": "[3]", "result": "no influence on the sensitivity"}, {"measurement": "cell cycle disturbance", "setting": "HL60 cells", "result": "marked accumulation of cells in S-phase"}, {"measurement": "tolerability", "setting": "Swiss Webster mice", "result": "tolerated"}, {"measurement": "toxicity to normal cells compared with arsenic trioxide", "setting": "normal donor cells", "result": "less toxic then arsenic trioxide"}]}]}
